Laboratory results reported in US12692223B2, “Phenyl-sulfamoyl-benzoic acid derivatives as ERAP1-modulators” (GREY WOLF THERAPEUTICS LIMITED, priority 2021, dated 2026).

Target: T1, ERAP1 (Homo sapiens, UniProt Q9NZ08)
T1 construct: Purified ERAP1(37-941)-10His (ERAP1)
Assay: ERAP1 mediated hydrolysis of an amide substrate measured in a biochemical system (10-mer inhibition assay)
Details: purified ERAP1(37-941)-10His; 10-mer substrate; 23° C. for 1 h; excitation 279 nm, emission 355 nm; read-out: IC50 vs Decapeptide WRVYEKC(Dnp)ALK-acid (where Dnp is Dinitrophenyl maleimide) (10-mer)
Protocol: Biological Assay 1: ERAP1 Mediated Hydrolysis of an Amide Substrate Measured in a Biochemical System
• 1× Assay buffer (AB): 25 mM Bis-tris propane, 0.05% w/v • Hydroxypropylmethylcellulose pH 7.75 made with Optima grade water • Decapeptide WRVYEKC(Dnp)ALK-acid (where Dnp is Dinitrophenyl maleimide) (10-mer) • L-Leucine 7-amido-4-methylcoumarin (L-AMC) • Purified ERAP1(37-941)-10His (ERAP1) Assay Procedure:
12.5 μL ERAP1 enzyme in 1×AB was combined with 250 nL test compound in DMSO. 12.5 μL of either 240 μM L-AMC in 1×AB or 100 μM 10-mer in 1×AB was added to the reaction and incubated at 23° C. for 1 h. For detection, plates were read at excitation 365 nm and emission 442 nm (L-AMC) or excitation 279 nm and emission 355 nm (10-mer). Compound IC50 was determined using a 4-parameter equation.

T1 sequence (Q9NZ08 37-941): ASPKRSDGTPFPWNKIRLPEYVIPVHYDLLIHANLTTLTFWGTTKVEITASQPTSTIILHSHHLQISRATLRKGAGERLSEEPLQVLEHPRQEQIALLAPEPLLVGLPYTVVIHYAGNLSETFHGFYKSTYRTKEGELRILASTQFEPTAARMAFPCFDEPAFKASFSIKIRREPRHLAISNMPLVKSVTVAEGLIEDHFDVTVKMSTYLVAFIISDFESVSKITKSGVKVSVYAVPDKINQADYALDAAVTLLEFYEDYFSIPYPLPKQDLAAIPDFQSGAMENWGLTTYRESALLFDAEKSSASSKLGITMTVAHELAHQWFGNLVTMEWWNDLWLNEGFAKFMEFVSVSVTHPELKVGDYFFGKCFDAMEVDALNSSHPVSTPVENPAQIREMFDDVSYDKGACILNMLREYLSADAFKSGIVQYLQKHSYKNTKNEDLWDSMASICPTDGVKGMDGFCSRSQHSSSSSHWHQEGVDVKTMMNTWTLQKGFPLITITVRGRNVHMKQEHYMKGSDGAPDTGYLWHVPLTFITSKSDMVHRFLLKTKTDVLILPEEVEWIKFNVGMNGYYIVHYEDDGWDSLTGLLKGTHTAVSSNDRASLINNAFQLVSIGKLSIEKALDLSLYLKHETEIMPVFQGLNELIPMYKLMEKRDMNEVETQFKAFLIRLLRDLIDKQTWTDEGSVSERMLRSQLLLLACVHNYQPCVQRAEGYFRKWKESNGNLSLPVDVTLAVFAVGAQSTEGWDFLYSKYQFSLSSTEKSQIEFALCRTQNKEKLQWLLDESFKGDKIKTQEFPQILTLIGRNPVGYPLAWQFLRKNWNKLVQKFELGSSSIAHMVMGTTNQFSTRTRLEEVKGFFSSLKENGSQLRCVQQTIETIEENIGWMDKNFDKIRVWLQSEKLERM

| SMILES | IC50 [nM] |
| --- | --- |
| CC1CC(Oc2cc(Cl)c(C#N)cc2NS(=O)(=O)c2cc(C(=O)O)ccc2C2CC2)C1 (single isomer, unassigned) [Example 114, 3-(N-(4-chloro-5-cyano-2-(3-methylcyclobutoxy)phenyl)sulfamoyl)-4-cyclopropylbenzoic acid] | < 1 |
| CC1CC(Oc2cc(Cl)c(C#N)cc2NS(=O)(=O)c2cc(C(=O)O)ccc2C2CC2)C1 (single isomer, unassigned) [Example 115, 3-(N-(4-chloro-5-cyano-2-(3-methylcyclobutoxy)phenyl)sulfamoyl)-4-cyclopropylbenzoic acid] | < 1 |
| C#CC1CCCC1Oc1cc(Cl)c(C#N)cc1NS(=O)(=O)c1cc(C(=O)O)ccc1C1CC1 (single isomer, unassigned) [Example 116, 3-(N-(4-chloro-5-cyano-2-((trans-2-ethynylcyclopentyl)oxy)phenyl)sulfamoyl)-4-cyclopropylbenzoic acid] | > 5 |
| C#CC1CCCC1Oc1cc(Cl)c(C#N)cc1NS(=O)(=O)c1cc(C(=O)O)ccc1C1CC1 (single isomer, unassigned) [Example 117, 3-(N-(4-chloro-5-cyano-2-((trans-2-ethynylcyclopentyl)oxy)phenyl)sulfamoyl)-4-cyclopropylbenzoic acid] | < 1 |
| CC1CCC1Oc1cc(Cl)c(C#N)cc1NS(=O)(=O)c1cc(C(=O)O)ccc1C1CC1 (single isomer, unassigned) [Example 120, 3-(N-(4-chloro-5-cyano-2-(2-methylcyclobutoxy)phenyl)sulfamoyl)-4-cyclopropylbenzoic acid] | < 1 |
| CC1CCC1Oc1cc(Cl)c(C#N)cc1NS(=O)(=O)c1cc(C(=O)O)ccc1C1CC1 (single isomer, unassigned) [Example 121, 3-(N-(4-chloro-5-cyano-2-(2-methylcyclobutoxy)phenyl)sulfamoyl)-4-cyclopropylbenzoic acid] | < 1 |
| CC1CCC1Oc1cc(Cl)c(C#N)cc1NS(=O)(=O)c1cc(C(=O)O)ccc1C1CC1 (single isomer, unassigned) [Example 122, 3-(N-(4-chloro-5-cyano-2-(2-methylcyclobutoxy)phenyl)sulfamoyl)-4-cyclopropylbenzoic acid] | 1 to 5 |
| CC1CCC1Oc1cc(Cl)c(C#N)cc1NS(=O)(=O)c1cc(C(=O)O)ccc1C1CC1 (single isomer, unassigned) [Example 123, 3-(N-(4-chloro-5-cyano-2-(2-methylcyclobutoxy)phenyl)sulfamoyl)-4-cyclopropylbenzoic acid] | < 1 |
| C#CC1CCCC1Oc1cc(Cl)c(C#N)cc1NS(=O)(=O)c1cc(C(=O)O)ccc1C1CC1 (single isomer, unassigned) [Example 126, 3-(N-(4-chloro-5-cyano-2-((cis-2-ethynylcyclopentyl)oxy)phenyl)sulfamoyl)-4-cyclopropylbenzoic acid] | < 1 |
| C#CC1CCCC1Oc1cc(Cl)c(C#N)cc1NS(=O)(=O)c1cc(C(=O)O)ccc1C1CC1 (single isomer, unassigned) [Example 127, 3-(N-(4-chloro-5-cyano-2-((cis-2-ethynylcyclopentyl)oxy)phenyl)sulfamoyl)-4-cyclopropylbenzoic acid] | > 5 |
| N#Cc1cc(NS(=O)(=O)c2cc(C(=O)O)ccc2C2CC2)c(OC2CCC2O)cc1Cl (single isomer, unassigned) [Example 128, 3-(N-(4-chloro-5-cyano-2-(trans-2-hydroxycyclobutoxy)phenyl)sulfamoyl)-4-cyclopropylbenzoic acid] | < 1 |
| N#Cc1cc(NS(=O)(=O)c2cc(C(=O)O)ccc2C2CC2)c(OC2CCC2O)cc1Cl (single isomer, unassigned) [Example 129, 3-(N-(4-chloro-5-cyano-2-(trans-2-hydroxycyclobutoxy)phenyl)sulfamoyl)-4-cyclopropylbenzoic acid] | > 5 |
